Measurements published in the supplement of paper PMC11451515.

Test system: SEM cells
Assay: cell viability relative to DMSO control; higher = less cytotoxic
Details: 48 h
Summary of the method: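 Viability values are per-plate percentages of DMSO wells, with background from cell-free wells. Library compounds in DMSO were pin-dosed, in an 11-point threefold series from 47 μM to 0.79 nM, onto NOMO1 or SEM (500 cells/well) or P12-Ichikawa (1000 cells/well) leukemia cells in 1536-well plates (5 μl). Those cells had been adapted for at least four passages in each medium, and CellTiter-Glo One luminescence was read after 48 h at 37°C.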

[1] = HPLM + 10% dialyzed FBS, 0.000781 µM
[2] = HPLM + 10% dialyzed FBS, 0.00234 µM
[3] = HPLM + 10% dialyzed FBS, 0.00702 µM
[4] = HPLM + 10% dialyzed FBS, 0.0211 µM
[5] = HPLM + 10% dialyzed FBS, 0.0632 µM
[6] = HPLM + 10% dialyzed FBS, 0.19 µM
[7] = HPLM + 10% dialyzed FBS, 0.569 µM
[8] = HPLM + 10% dialyzed FBS, 1.71 µM
[9] = HPLM + 10% dialyzed FBS, 5.12 µM
[10] = HPLM + 10% dialyzed FBS, 15.4 µM
[11] = HPLM + 10% dialyzed FBS, 46.1 µM
[12] = RPMI 5 mM glucose + 10% FBS, 0.000781 µM
[13] = RPMI 5 mM glucose + 10% FBS, 0.00234 µM
[14] = RPMI 5 mM glucose + 10% FBS, 0.00702 µM
[15] = RPMI 5 mM glucose + 10% FBS, 0.0211 µM
[16] = RPMI 5 mM glucose + 10% FBS, 0.0632 µM
[17] = RPMI 5 mM glucose + 10% FBS, 0.19 µM
[18] = RPMI 5 mM glucose + 10% FBS, 0.569 µM
[19] = RPMI 5 mM glucose + 10% FBS, 1.71 µM
[20] = RPMI 5 mM glucose + 10% FBS, 5.12 µM
[21] = RPMI 5 mM glucose + 10% FBS, 15.4 µM
[22] = RPMI 5 mM glucose + 10% FBS, 46.1 µM
[23] = RPMI 5 mM glucose + 10% dialyzed FBS, 0.000781 µM
[24] = RPMI 5 mM glucose + 10% dialyzed FBS, 0.00234 µM
[25] = RPMI 5 mM glucose + 10% dialyzed FBS, 0.00702 µM
[26] = RPMI 5 mM glucose + 10% dialyzed FBS, 0.0211 µM
[27] = RPMI 5 mM glucose + 10% dialyzed FBS, 0.0632 µM
[28] = RPMI 5 mM glucose + 10% dialyzed FBS, 0.19 µM
[29] = RPMI 5 mM glucose + 10% dialyzed FBS, 0.569 µM
[30] = RPMI 5 mM glucose + 10% dialyzed FBS, 1.71 µM
[31] = RPMI 5 mM glucose + 10% dialyzed FBS, 5.12 µM
[32] = RPMI 5 mM glucose + 10% dialyzed FBS, 15.4 µM
[33] = RPMI 5 mM glucose + 10% dialyzed FBS, 46.1 µM

Structure (SMILES)	cell viability [1]	cell viability [2]	cell viability [3]	cell viability [4]	cell viability [5]	cell viability [6]	cell viability [7]	cell viability [8]	cell viability [9]	cell viability [10]	cell viability [11]	cell viability [12]	cell viability [13]	cell viability [14]	cell viability [15]	cell viability [16]	cell viability [17]	cell viability [18]	cell viability [19]	cell viability [20]	cell viability [21]	cell viability [22]	cell viability [23]	cell viability [24]	cell viability [25]	cell viability [26]	cell viability [27]	cell viability [28]	cell viability [29]	cell viability [30]	cell viability [31]	cell viability [32]	cell viability [33]
CCc1ccc(/C=C2/SC(=S)NC2=O)cc1	65.6%	63.5%	87.9%	76.4%	66.2%	64.8%	77.2%	64.8%	80.9%	27.6%	34.5%	78%	89.9%	94%	106%	97%	77.9%	80%	87.2%	74.6%	40.1%	45.4%	79.3%	62.7%	74%	74.2%	69.9%	61%	66.4%	57.3%	58.6%	20.5%	27%
CN1CC(=O)N2[C@H](c3ccc4c(c3)OCO4)c3[nH]c4ccccc4c3C[C@@H]2C1=O	98.8%	88.6%	97.2%	96.3%	98%	102%	108%	106%	93.9%	100%	85.9%	92.6%	85.3%	85.8%	97.9%	102%	108%	92.6%	88.8%	82.1%	85.3%	83.5%	94%	88.8%	88.3%	108%	106%	69.6%	105%	113%	105%	89%	95.4%
Cc1cc2c(C(N)=O)cccc2n1-c1nc2c(c(NCc3ccccc3)n1)COCC2	89.6%	95.4%	73%	87.2%	93.5%	93.3%	84.9%	38.7%	3.03%	2.9%	3.03%												94.5%	105%	85.5%	87.7%	101%	99.4%	95.8%	24.1%	3.45%	3.44%	3.1%
CNC(=O)c1ccc(Nc2cc(Nc3ccccc3[S+](=O)([O-])C(C)C)c3cc[nH]c3n2)nc1	81.7%	76.4%	96.5%	90.7%	89.8%	98.3%	82.9%	38.2%	28.4%	24.3%	16.8%	93.5%	118%	106%	114%	104%	102%	101%	48.9%	20.8%	17.7%	6.52%	83.9%	99.4%	98.5%	94.7%	102%	97.6%	85%	27%	20.1%	17.4%	7.56%
C=CC(=O)Nc1cc2c(Nc3ccc(F)c(Cl)c3)ncnc2cc1OCCCN1CCOCC1	112%	107%	112%	128%	110%	124%	114%	90.3%	55%	39.2%	26.7%	87.7%	81.5%	85.3%	84%	73.1%	78.6%	80.2%	68.6%	41.7%	24.2%	42.9%	119%	114%	95.4%	127%	112%	110%	108%	89%	56.3%	29.1%	58.8%
